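Growth conditions: 96-well plates. Treatment: test compound, 48 hours, 5 concentrations. Analysis: linear interpolation between bracketing concentrations; unreached endpoints set to highest concentration. Here, GI50 denotes the concentration required for 50% inhibition of growth.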 Active and inactive are the calls of the source. Cut-off read from the data, not from the text of the source: active = GI50 up to about 1.1 µM and inactive = higher.
Experiments:
Test in all cases: NCI tumour cell line growth inhibition, 48 h
[1] = tested on: SF-268
[2] = tested on: CAKI-1
[3] = tested on: SF-295
[4] = tested on: OVCAR-5
[5] = tested on: BT-549
[6] = tested on: HOP-92
[7] = tested on: ACHN
[8] = tested on: SW-620
[9] = tested on: T47D
[10] = tested on: SK-OV-3
[11] = tested on: NCI-H23
[12] = tested on: A498
[13] = tested on: HCT-116
[14] = tested on: A549
[15] = tested on: PC-3
[16] = tested on: COLO 205
[17] = tested on: RXF 393
[18] = tested on: SK-MEL-5
[19] = tested on: RPMI-8226
[20] = tested on: HCC 2998

Structure (SMILES)	GI50 [1]	GI50 [2]	GI50 [3]	GI50 [4]	GI50 [5]	GI50 [6]	GI50 [7]	GI50 [8]	GI50 [9]	GI50 [10]	GI50 [11]	GI50 [12]	GI50 [13]	GI50 [14]	GI50 [15]	GI50 [16]	GI50 [17]	GI50 [18]	GI50 [19]	GI50 [20]
N#CC12COC3(CCCCC3C1(C#N)C#N)OC2=N (centres undefined)	12.7 µM (inactive)	3.59 µM (inactive)	19.5 µM (inactive)	16.6 µM (inactive)	15.4 µM (inactive)	5.06 µM (inactive)	15.1 µM (inactive)	10.3 µM (inactive)	11 µM (inactive)	45.7 µM (inactive)	16.7 µM (inactive)	18.2 µM (inactive)	12.6 µM (inactive)	24.7 µM (inactive)	13.8 µM (inactive)	6.4 µM (inactive)	13.1 µM (inactive)	11.4 µM (inactive)		
O=C1c2c(ccc3c2CCC3)CC1Cc1ccc2c(c1)CCC2 (centres undefined)	33.7 µM (inactive)		26.9 µM (inactive)	90.2 µM (inactive)	51.6 µM (inactive)		36.1 µM (inactive)	17.1 µM (inactive)	3.05 µM (inactive)	53.3 µM (inactive)	21.6 µM (inactive)	27.1 µM (inactive)	6.55 µM (inactive)	28.9 µM (inactive)		20.3 µM (inactive)	25.7 µM (inactive)	12.5 µM (inactive)	9.91 µM (inactive)	34.3 µM (inactive)
C=CCCC(=O)N1CCC(C(=O)OCC)C1=O (centres undefined)	> 100 µM (inactive)	> 100 µM (inactive)	> 100 µM (inactive)	> 100 µM (inactive)	> 100 µM (inactive)		> 100 µM (inactive)	> 100 µM (inactive)	> 100 µM (inactive)	> 100 µM (inactive)	> 100 µM (inactive)	> 100 µM (inactive)	> 100 µM (inactive)	> 100 µM (inactive)	> 100 µM (inactive)	> 100 µM (inactive)	> 100 µM (inactive)	> 100 µM (inactive)		
CC(=O)N1C(c2[nH]c3ccccc3c2Cc2ccccc2)CCN1c1ccccc1 (centres undefined)	4.72 µM (inactive)	8.47 µM (inactive)	4.35 µM (inactive)	> 10 µM (inactive)	> 10 µM (inactive)		3.04 µM (inactive)	> 10 µM (inactive)	6.41 µM (inactive)	> 10 µM (inactive)	8.59 µM (inactive)		4.72 µM (inactive)	4.88 µM (inactive)	3.24 µM (inactive)	8.81 µM (inactive)	4.16 µM (inactive)	> 10 µM (inactive)	6.49 µM (inactive)	5.97 µM (inactive)
C=C(C)CC1=C(OCC)C(OC)(OCC)C1=O (centres undefined)	> 100 µM (inactive)	> 100 µM (inactive)	> 100 µM (inactive)	> 100 µM (inactive)	40.3 µM (inactive)	> 100 µM (inactive)	> 100 µM (inactive)	> 100 µM (inactive)	> 100 µM (inactive)	> 100 µM (inactive)	> 100 µM (inactive)	> 100 µM (inactive)	> 100 µM (inactive)	> 100 µM (inactive)	> 100 µM (inactive)	> 100 µM (inactive)		> 100 µM (inactive)		
CC(=O)/C(=C/NC(=S)c1ccncc1)C(=O)Nc1ccccc1C	> 100 µM (inactive)	> 100 µM (inactive)	> 100 µM (inactive)	> 100 µM (inactive)	> 100 µM (inactive)	> 100 µM (inactive)	> 100 µM (inactive)	> 100 µM (inactive)	> 100 µM (inactive)	> 100 µM (inactive)	> 100 µM (inactive)	> 100 µM (inactive)	> 100 µM (inactive)	> 100 µM (inactive)		> 100 µM (inactive)	> 100 µM (inactive)	> 100 µM (inactive)		> 100 µM (inactive)
CCN(c1cccc(NC(=S)Nc2ccccc2N(CC)c2cc(-c3ccccc3)no2)c1)c1cc(-c2ccccc2)no1	> 100 µM (inactive)	> 100 µM (inactive)	> 100 µM (inactive)	> 100 µM (inactive)	> 100 µM (inactive)	> 100 µM (inactive)	> 100 µM (inactive)	> 100 µM (inactive)	> 100 µM (inactive)	> 100 µM (inactive)	> 100 µM (inactive)		> 100 µM (inactive)	> 100 µM (inactive)	> 100 µM (inactive)	> 100 µM (inactive)	> 100 µM (inactive)	> 100 µM (inactive)	> 100 µM (inactive)	> 100 µM (inactive)
O=[N+]([O-])c1cccc2nc3ccccc3c(NCCCCNc3c4ccccc4nc4cccc([N+](=O)[O-])c34)c12	0.0203 µM (active)	0.0261 µM (active)	0.0927 µM (active)	0.164 µM (active)	0.242 µM (active)	0.0233 µM (active)	0.017 µM (active)	< 0.0122 µM (active)	0.0491 µM (active)	0.293 µM (active)	0.0225 µM (active)		0.0143 µM (active)	0.0347 µM (active)	0.0719 µM (active)	0.0199 µM (active)	0.0188 µM (active)	0.0365 µM (active)	0.0301 µM (active)	0.0254 µM (active)
CC1(C)CN=C(Nc2ccc(F)cc2)S1	> 100 µM (inactive)	> 100 µM (inactive)	> 100 µM (inactive)	> 100 µM (inactive)	> 100 µM (inactive)	59.7 µM (inactive)	> 100 µM (inactive)	> 100 µM (inactive)	> 100 µM (inactive)	> 100 µM (inactive)	> 100 µM (inactive)		> 100 µM (inactive)	> 100 µM (inactive)	> 100 µM (inactive)	> 100 µM (inactive)	> 100 µM (inactive)	> 100 µM (inactive)	> 100 µM (inactive)	> 100 µM (inactive)
Cc1cc(=O)n2nc(CCl)sc2n1	15.8 µM (inactive)	10.3 µM (inactive)	19.3 µM (inactive)	15 µM (inactive)	3.58 µM (inactive)	12.6 µM (inactive)	14.3 µM (inactive)	15.8 µM (inactive)	15.3 µM (inactive)	15.5 µM (inactive)	23.2 µM (inactive)		12.4 µM (inactive)	16.5 µM (inactive)	13.3 µM (inactive)	18.7 µM (inactive)	5.94 µM (inactive)	10.6 µM (inactive)	10.6 µM (inactive)	16 µM (inactive)
c1cc2c3c(c1)[C@@H]1O[C@@H]1c1cccc(c1-3)[C@@H]1O[C@H]21	16.3 µM (inactive)	14.8 µM (inactive)	23.6 µM (inactive)	16.5 µM (inactive)	24 µM (inactive)	20.8 µM (inactive)	18.7 µM (inactive)		20.5 µM (inactive)	> 100 µM (inactive)	16.4 µM (inactive)	63.8 µM (inactive)	15 µM (inactive)	31.6 µM (inactive)	22.9 µM (inactive)	18.1 µM (inactive)	2.93 µM (inactive)	17.9 µM (inactive)		
Oc1nncc2[nH]c(-c3ccccc3)cc12	39.4 µM (inactive)	45.8 µM (inactive)	26.2 µM (inactive)	95.1 µM (inactive)	37.8 µM (inactive)	> 100 µM (inactive)	46.3 µM (inactive)	64.4 µM (inactive)	23.7 µM (inactive)	63.7 µM (inactive)	48.9 µM (inactive)		57.7 µM (inactive)	49.3 µM (inactive)	30.1 µM (inactive)	43.1 µM (inactive)	27 µM (inactive)	23.3 µM (inactive)	56.4 µM (inactive)	36 µM (inactive)
COc1cc(OC)c(-c2ccc(OCc3ccccc3)c3c(OC)cc(C)cc23)c2c1C(C)=N[C@H](C)C2	1.78 µM (inactive)	> 12.5 µM (inactive)	2.01 µM (inactive)	2.52 µM (inactive)	3.31 µM (inactive)	1.64 µM (inactive)	2.25 µM (inactive)	2.45 µM (inactive)		2.19 µM (inactive)	2.36 µM (inactive)	2.16 µM (inactive)	2.23 µM (inactive)	2.3 µM (inactive)	2.1 µM (inactive)	2.28 µM (inactive)	2.77 µM (inactive)	2.27 µM (inactive)	1.44 µM (inactive)	
CC1(C)SC2C(NC(=O)C(C(=O)O)c3ccccc3)C(=O)N2C1C(=O)O (centres undefined)	> 100 µM (inactive)	> 100 µM (inactive)	> 100 µM (inactive)	> 100 µM (inactive)	> 100 µM (inactive)		> 100 µM (inactive)	> 100 µM (inactive)	> 100 µM (inactive)	> 100 µM (inactive)	> 100 µM (inactive)	> 100 µM (inactive)	> 100 µM (inactive)		> 100 µM (inactive)	> 100 µM (inactive)	> 100 µM (inactive)	> 100 µM (inactive)	> 100 µM (inactive)	
Cn1c2c(c3ccccc3c1=O)C(=O)c1ccccc1-2	51.8 µM (inactive)	> 100 µM (inactive)	> 100 µM (inactive)	> 100 µM (inactive)	50.9 µM (inactive)	> 100 µM (inactive)		> 100 µM (inactive)	> 100 µM (inactive)	81.7 µM (inactive)	30.8 µM (inactive)	74.1 µM (inactive)	15.5 µM (inactive)	> 100 µM (inactive)	> 100 µM (inactive)	20 µM (inactive)		29.9 µM (inactive)	> 100 µM (inactive)	

— ChEMBL document CHEMBL1201862, “PubChem BioAssay data set” (2004)
